Laboratory results from publication PMC514652, “A single amino acid determines preference between phospholipids and reveals length restriction for activation ofthe S1P4 receptor” (BMC Biochemistry, 2004).
Residue numbers refer to the chain shown, from its start.

How the values were obtained:
S1P4 [1] = target: T1, S1P4 (Homo sapiens, UniProt O95977, E122Q); test: […]GTPγS binding assay at a single […] concentration (weak agonist); assay type: cell-based; settings: read-out: % stimulation over basal at 10 μM
T1 construct: gene S1PR4; HA-S1P4(E3.29(122)Q)-Gαi1(C351I) fusion in CHO-K1 membranes, pertussis toxin treated; with Gαi1(C351I) (fused)
T1 sequence (O95977 1-384 E122Q): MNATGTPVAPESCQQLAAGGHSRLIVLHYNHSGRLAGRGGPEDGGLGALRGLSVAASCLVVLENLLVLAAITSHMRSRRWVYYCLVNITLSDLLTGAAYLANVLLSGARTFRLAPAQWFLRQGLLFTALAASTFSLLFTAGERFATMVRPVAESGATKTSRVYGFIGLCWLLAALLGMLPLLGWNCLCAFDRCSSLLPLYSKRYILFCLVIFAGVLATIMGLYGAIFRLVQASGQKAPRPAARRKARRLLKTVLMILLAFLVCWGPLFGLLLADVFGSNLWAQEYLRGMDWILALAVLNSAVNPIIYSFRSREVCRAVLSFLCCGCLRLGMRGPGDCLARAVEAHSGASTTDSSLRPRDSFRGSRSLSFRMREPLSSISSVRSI

S1P4 [2] = target: T2, S1P4 (Homo sapiens, UniProt O95977); test: […]GTPγS binding assay, CHO-K1 membranes; assay type: biochemical
T2 construct: gene S1PR4
T2 sequence (O95977 1-384): T1 sequence (O95977 1-384 E122Q) with Q122E

| SMILES | activation at 10 µM (S1P4 [1]) [%] | EC50 (S1P4 [2]) [nM] |
| --- | --- | --- |
| CCCCCCCCCCCCCCCC(=O)OC[C@@H](O)COP(=O)(O)O [16:0 LPA] | ~19 |  |
| CCCCCCCCCCCCC/C=C/[C@@H](O)[C@@H](N)COP(=O)(O)O [S1P, Sphingosine-1-phosphate] |  | 355 ± 155 |
